In ChEMBL document CHEMBL4507311, “Data for DCP probe A-1155463” (2021):

How the values were obtained:
[1] = target: 5'-AMP-activated protein kinase catalytic subunit alpha-2 (Homo sapiens) (UniProt P54646); conditions: Compound concentration 1000.0 nM
[2] = target: Mitogen-activated protein kinase kinase kinase 5 (Homo sapiens) (UniProt Q99683); conditions: Compound concentration 1000.0 nM
[3] = target: Peripheral plasma membrane protein CASK (Homo sapiens) (UniProt O14936); conditions: Compound concentration 1000.0 nM
[4] = target: Casein kinase II subunit alpha' (Homo sapiens) (UniProt P19784); conditions: Compound concentration 1000.0 nM
[5] = target: Epithelial discoidin domain-containing receptor 1 (Homo sapiens) (UniProt Q08345); conditions: Compound concentration 1000.0 nM
[6] = tested on: Epidermal growth factor receptor (Homo sapiens), P00533 [UNDEFINED MUTATION]; conditions: Compound concentration 1000.0 nM
[7] = tested on: Epidermal growth factor receptor (Homo sapiens), P00533 [G719C]; conditions: Compound concentration 1000.0 nM
[8] = target: Eukaryotic translation initiation factor 2-alpha kinase 1 (Homo sapiens) (UniProt Q9BQI3); conditions: Compound concentration 1000.0 nM
Eukaryotic translation initiation factor 2-alpha kinase 1 (Homo sapiens), sequence (Q9BQI3 whole entry): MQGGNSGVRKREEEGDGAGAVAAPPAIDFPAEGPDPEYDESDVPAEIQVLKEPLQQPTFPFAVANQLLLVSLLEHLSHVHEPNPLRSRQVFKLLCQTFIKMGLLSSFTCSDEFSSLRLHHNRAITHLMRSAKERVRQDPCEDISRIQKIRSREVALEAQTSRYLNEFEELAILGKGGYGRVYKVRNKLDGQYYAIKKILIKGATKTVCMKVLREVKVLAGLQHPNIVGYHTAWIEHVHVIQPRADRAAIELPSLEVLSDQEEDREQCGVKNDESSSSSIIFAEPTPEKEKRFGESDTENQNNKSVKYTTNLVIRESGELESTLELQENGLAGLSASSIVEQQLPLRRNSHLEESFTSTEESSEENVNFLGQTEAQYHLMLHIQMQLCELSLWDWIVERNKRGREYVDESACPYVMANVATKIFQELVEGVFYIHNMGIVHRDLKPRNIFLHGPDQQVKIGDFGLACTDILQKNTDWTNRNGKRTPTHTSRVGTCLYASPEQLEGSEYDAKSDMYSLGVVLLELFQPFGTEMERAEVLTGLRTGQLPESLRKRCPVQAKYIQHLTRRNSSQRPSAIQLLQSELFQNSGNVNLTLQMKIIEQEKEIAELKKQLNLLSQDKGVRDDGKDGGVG

[9] = target: Ephrin type-B receptor 2 (Homo sapiens) (UniProt P29323); conditions: Compound concentration 1000.0 nM
Ephrin type-B receptor 2 (Homo sapiens), sequence (P29323 whole entry): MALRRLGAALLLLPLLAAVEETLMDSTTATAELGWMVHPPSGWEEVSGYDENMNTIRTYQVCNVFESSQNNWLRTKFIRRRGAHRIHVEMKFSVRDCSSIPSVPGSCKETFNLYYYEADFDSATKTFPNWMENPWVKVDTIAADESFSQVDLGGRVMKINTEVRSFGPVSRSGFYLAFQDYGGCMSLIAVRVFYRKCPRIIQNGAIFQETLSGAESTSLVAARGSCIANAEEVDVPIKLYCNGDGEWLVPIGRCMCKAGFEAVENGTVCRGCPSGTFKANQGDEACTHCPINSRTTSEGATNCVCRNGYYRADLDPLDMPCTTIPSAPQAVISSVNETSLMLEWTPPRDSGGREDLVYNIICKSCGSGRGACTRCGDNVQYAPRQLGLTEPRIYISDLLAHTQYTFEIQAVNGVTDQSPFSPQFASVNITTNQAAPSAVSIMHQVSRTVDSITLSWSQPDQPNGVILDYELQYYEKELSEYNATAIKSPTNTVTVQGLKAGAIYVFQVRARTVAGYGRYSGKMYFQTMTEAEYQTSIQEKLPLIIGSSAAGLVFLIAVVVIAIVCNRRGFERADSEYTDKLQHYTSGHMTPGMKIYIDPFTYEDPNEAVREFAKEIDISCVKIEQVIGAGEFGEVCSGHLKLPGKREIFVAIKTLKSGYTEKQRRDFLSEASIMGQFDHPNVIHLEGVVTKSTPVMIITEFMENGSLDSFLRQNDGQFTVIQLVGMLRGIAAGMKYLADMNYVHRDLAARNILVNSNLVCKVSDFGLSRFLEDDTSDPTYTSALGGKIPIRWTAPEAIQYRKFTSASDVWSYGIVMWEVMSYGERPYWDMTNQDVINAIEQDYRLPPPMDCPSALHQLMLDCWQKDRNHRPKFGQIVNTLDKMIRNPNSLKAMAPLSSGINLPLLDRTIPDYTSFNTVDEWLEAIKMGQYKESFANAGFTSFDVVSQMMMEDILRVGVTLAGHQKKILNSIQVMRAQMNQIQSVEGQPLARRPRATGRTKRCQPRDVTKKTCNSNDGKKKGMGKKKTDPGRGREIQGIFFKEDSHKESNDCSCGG

[10] = target: Fibroblast growth factor receptor 2 (Homo sapiens) (UniProt P21802); conditions: Compound concentration 1000.0 nM
[11] = tested on: Receptor-type tyrosine-protein kinase FLT3 (Homo sapiens), P36888 [N841I]; conditions: Compound concentration 1000.0 nM
[12] = target: Beta-adrenergic receptor kinase 1 (Homo sapiens) (UniProt P25098); conditions: Compound concentration 1000.0 nM
[13] = target: Homeodomain-interacting protein kinase 2 (Homo sapiens) (UniProt Q9H2X6); conditions: Compound concentration 1000.0 nM
[14] = target: Hormonally up-regulated neu tumor-associated kinase (Homo sapiens) (UniProt P57058); conditions: Compound concentration 1000.0 nM
[15] = target: Interleukin-1 receptor-associated kinase 4 (Homo sapiens) (UniProt Q9NWZ3); conditions: Compound concentration 1000.0 nM
[16] = target: Serine/threonine-protein kinase STK11 (Homo sapiens) (UniProt Q15831); conditions: Compound concentration 1000.0 nM
[17] = target: Serine/threonine-protein kinase 10 (Homo sapiens) (UniProt O94804); conditions: Compound concentration 1000.0 nM
[18] = target: Leucine-rich repeat serine/threonine-protein kinase 2 (Homo sapiens) (UniProt Q5S007); conditions: Compound concentration 1000.0 nM
[19] = target: Serine/threonine-protein kinase MAK (Homo sapiens) (UniProt P20794); conditions: Compound concentration 1000.0 nM
[20] = target: Mitogen-activated protein kinase kinase kinase kinase 5 (Homo sapiens) (UniProt Q9Y4K4); conditions: Compound concentration 1000.0 nM
Mitogen-activated protein kinase kinase kinase kinase 5 (Homo sapiens), sequence (Q9Y4K4 whole entry, looked up): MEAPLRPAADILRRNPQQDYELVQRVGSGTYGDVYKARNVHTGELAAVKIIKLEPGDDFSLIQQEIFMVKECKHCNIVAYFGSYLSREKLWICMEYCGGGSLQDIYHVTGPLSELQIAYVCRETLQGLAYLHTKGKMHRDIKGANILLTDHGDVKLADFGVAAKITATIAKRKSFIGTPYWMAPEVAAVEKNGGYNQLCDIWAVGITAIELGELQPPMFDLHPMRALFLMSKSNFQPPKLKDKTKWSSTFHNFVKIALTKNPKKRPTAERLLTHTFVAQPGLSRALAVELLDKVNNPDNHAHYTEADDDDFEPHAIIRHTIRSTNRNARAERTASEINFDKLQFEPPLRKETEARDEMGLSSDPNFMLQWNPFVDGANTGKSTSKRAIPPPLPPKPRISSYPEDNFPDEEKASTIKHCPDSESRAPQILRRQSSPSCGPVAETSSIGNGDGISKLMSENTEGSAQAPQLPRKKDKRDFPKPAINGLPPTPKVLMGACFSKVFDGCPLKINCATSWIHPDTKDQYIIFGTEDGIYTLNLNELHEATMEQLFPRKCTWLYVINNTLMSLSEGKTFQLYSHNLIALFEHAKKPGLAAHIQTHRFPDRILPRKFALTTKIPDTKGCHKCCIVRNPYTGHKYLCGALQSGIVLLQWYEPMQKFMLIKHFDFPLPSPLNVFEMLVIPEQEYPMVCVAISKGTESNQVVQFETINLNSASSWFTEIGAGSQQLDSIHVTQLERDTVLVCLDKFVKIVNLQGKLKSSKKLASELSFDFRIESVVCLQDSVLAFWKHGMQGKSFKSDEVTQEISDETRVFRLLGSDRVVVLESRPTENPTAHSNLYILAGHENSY

[21] = target: Dual specificity mitogen-activated protein kinase kinase 2 (Homo sapiens) (UniProt P36507); conditions: Compound concentration 1000.0 nM
Dual specificity mitogen-activated protein kinase kinase 2 (Homo sapiens), sequence (P36507 whole entry): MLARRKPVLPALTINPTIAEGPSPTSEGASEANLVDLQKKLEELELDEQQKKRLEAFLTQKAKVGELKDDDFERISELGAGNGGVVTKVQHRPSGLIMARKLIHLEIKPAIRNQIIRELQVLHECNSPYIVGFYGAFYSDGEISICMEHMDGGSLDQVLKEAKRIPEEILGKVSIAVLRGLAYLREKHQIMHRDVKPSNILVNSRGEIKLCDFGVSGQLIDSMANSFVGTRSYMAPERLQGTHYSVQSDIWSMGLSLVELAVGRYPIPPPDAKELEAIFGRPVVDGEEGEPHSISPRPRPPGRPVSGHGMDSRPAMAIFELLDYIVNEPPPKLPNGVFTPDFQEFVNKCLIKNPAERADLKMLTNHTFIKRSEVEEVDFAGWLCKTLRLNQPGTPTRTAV

[22] = target: Serine/threonine-protein kinase 26 (Homo sapiens) (UniProt Q9P289); conditions: Compound concentration 1000.0 nM
[23] = target: Serine/threonine-protein kinase NLK (Homo sapiens) (UniProt Q9UBE8); conditions: Compound concentration 1000.0 nM
[24] = target: Serine/threonine-protein kinase PAK 5 (Homo sapiens) (UniProt Q9P286); conditions: Compound concentration 1000.0 nM
[25] = target: Calcium-dependent protein kinase 1 (Plasmodium falciparum) (UniProt P62344); conditions: Compound concentration 1000.0 nM
[26] = target: Cyclin-dependent kinase 2 homolog (Plasmodium falciparum (isolate 3D7)) (UniProt P61075); conditions: Compound concentration 1000.0 nM
[27] = target: Phosphorylase b kinase regulatory subunit alpha, liver isoform (Homo sapiens) (UniProt P46019); conditions: Compound concentration 1000.0 nM
[28] = target: Serine/threonine-protein kinase pim-1 (Homo sapiens) (UniProt P11309); conditions: Compound concentration 1000.0 nM
[29] = target: Protein kinase C delta type (Homo sapiens) (UniProt Q05655); conditions: Compound concentration 1000.0 nM
Protein kinase C delta type (Homo sapiens), sequence (Q05655 whole entry, looked up): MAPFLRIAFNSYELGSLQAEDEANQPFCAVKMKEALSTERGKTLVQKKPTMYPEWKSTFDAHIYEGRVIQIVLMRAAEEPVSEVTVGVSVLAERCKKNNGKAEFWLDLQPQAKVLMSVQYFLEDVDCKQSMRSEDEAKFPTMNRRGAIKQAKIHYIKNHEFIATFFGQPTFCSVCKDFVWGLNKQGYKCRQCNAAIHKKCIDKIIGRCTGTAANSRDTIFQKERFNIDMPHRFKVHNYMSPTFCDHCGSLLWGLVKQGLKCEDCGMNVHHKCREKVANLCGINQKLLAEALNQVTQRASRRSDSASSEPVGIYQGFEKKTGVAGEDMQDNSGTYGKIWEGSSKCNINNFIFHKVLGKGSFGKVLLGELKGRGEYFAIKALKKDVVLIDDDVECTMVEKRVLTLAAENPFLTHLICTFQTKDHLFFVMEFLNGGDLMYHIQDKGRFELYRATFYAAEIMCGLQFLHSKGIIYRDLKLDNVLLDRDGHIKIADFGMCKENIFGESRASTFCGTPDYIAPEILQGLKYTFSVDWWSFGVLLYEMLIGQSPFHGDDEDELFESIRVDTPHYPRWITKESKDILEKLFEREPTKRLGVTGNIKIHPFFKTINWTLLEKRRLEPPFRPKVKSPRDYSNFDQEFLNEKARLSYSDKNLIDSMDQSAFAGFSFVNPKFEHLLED

[30] = target: Receptor-interacting serine/threonine-protein kinase 4 (Homo sapiens) (UniProt P57078); conditions: Compound concentration 1000.0 nM
[31] = target: Rho-associated protein kinase 1 (Homo sapiens) (UniProt Q13464); conditions: Compound concentration 1000.0 nM
Rho-associated protein kinase 1 (Homo sapiens), sequence (Q13464 2-1354 limits assumed): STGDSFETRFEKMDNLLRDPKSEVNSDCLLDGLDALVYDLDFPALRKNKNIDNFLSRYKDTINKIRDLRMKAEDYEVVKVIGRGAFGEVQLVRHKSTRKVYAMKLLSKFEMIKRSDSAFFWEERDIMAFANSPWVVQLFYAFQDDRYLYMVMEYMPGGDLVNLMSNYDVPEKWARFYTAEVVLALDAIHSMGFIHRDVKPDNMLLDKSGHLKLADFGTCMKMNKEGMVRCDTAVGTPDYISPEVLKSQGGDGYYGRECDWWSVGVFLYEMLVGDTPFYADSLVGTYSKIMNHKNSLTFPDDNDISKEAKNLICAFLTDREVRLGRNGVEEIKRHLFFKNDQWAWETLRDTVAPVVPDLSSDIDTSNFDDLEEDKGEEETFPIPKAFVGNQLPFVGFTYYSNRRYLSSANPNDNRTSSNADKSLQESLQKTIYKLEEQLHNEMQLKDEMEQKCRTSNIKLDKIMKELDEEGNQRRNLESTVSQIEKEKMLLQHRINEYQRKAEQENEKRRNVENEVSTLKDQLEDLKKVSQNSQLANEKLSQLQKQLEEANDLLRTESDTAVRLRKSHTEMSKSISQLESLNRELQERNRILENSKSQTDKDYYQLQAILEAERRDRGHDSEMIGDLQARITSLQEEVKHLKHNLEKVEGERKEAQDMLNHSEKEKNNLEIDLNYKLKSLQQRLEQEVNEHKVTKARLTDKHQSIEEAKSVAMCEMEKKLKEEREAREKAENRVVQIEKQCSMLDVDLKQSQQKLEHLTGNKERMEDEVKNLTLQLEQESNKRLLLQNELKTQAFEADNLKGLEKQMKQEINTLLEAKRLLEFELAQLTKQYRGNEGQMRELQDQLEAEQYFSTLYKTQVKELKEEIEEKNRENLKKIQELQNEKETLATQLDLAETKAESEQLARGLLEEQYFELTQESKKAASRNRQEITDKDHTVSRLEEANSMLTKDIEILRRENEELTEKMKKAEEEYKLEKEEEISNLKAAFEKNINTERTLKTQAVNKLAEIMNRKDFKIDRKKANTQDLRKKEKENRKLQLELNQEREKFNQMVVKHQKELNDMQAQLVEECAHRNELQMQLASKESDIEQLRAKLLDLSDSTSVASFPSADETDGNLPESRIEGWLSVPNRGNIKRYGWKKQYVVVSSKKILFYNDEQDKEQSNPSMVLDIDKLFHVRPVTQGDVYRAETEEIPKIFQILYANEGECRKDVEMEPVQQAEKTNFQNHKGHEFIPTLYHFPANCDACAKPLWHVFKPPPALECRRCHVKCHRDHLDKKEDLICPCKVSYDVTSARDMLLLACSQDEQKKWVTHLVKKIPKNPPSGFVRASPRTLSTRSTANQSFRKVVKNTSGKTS

[32] = target: Ribosomal protein S6 kinase alpha-5 (Homo sapiens) (UniProt O75582); conditions: Compound concentration 1000.0 nM
[33] = target: SRSF protein kinase 3 (Homo sapiens) (UniProt Q9UPE1); conditions: Compound concentration 1000.0 nM
[34] = target: Tyrosine-protein kinase receptor Tie-1 (Homo sapiens) (UniProt P35590); conditions: Compound concentration 1000.0 nM
[35] = target: NT-3 growth factor receptor (Homo sapiens) (UniProt Q16288); conditions: Compound concentration 1000.0 nM
[36] = target: Serine/threonine-protein kinase ULK2 (Homo sapiens) (UniProt Q8IYT8); conditions: Compound concentration 1000.0 nM
[37] = target: 5-hydroxytryptamine receptor 1B (Homo sapiens) (UniProt P28222); conditions: Compound concentration 10.0 uM
[38] = target: 5-hydroxytryptamine receptor 2A (Homo sapiens) (UniProt P28223); conditions: Compound concentration 10.0 uM
[39] = target: T1, Muscarinic acetylcholine receptor M2 (Homo sapiens) (UniProt P08172); conditions: Compound concentration 10.0 uM
T1 sequence (whole entry): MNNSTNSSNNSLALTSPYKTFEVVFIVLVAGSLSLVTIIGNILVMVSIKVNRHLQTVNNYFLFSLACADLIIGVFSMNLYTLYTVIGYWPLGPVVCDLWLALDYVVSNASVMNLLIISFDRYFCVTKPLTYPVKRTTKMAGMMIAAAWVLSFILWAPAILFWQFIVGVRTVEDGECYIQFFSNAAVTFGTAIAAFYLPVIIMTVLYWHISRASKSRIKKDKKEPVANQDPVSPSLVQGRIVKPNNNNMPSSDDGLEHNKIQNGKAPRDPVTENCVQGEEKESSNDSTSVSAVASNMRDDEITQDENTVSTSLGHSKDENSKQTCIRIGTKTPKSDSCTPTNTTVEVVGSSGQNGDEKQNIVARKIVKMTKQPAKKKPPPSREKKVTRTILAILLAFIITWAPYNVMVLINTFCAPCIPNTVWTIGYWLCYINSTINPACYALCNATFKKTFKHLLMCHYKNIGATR

CN(C)CC#Cc1ccc(OCCCc2sc(N3CCc4cccc(C(=O)Nc5nc6ccccc6s5)c4C3)nc2C(=O)O)c(F)c1 [A-1155463]
inactive: residual activity [1] 99% | residual activity [2] 94% | residual activity [3] 100% | residual activity [4] 100% | residual activity [5] 100% | residual activity [6] 86% | residual activity [7] 91% | residual activity [8] 98% | residual activity [9] 100% | residual activity [10] 98% | residual activity [11] 81% | residual activity [12] 100% | residual activity [13] 100% | residual activity [14] 56% | residual activity [15] 100% | residual activity [16] 100% | residual activity [17] 100% | residual activity [18] 100% | residual activity [19] 100% | residual activity [20] 91% | residual activity [21] 100% | residual activity [22] 80% | residual activity [23] 80% | residual activity [24] 91% | residual activity [25] 100% | residual activity [26] 100% | residual activity [27] 100% | residual activity [28] 100% | residual activity [29] 100% | residual activity [30] 100% | residual activity [31] 100% | residual activity [32] 83% | residual activity [33] 100% | residual activity [34] 85% | residual activity [35] 100% | residual activity [36] 100% | inhibition [37] 20.2% | inhibition [38] 40.1% | inhibition [39] 34.7%
